Values after ≈ are worked out from the molar mass of the structure shown.
Tests used:
[1] = Induction of apoptosis in human platelets assessed as viable cells after 10 mins using Annexin V/propidium iodide by flow cytometry (reference value: 89.61 %); format: cell-based, Platelet; details: read-out: Activity
[2] = Induction of apoptosis in human monocytes assessed as necrotic cells using Annexin V/propidium iodide by flow cytometry (reference value: 0.02 %); format: cell-based; details: monocyte
[3] = Induction of apoptosis in human monocytes assessed as viable cells using Annexin V/propidium iodide by flow cytometry (reference value: 97.53 %); format: cell-based, Monocyte; details: read-out: Activity
[4] = tested on: Trypanosoma cruzi; assay: Trypanocidal activity against epimastigote forms of Trypanosoma cruzi Punta Lobos after 24 hrs; format: functional
[5] = Activation of human platelets assessed as CD62P expression at 3.9 ug/ml by flow cytometry relative to control; format: cell-based; details: platelet
[6] = Induction of apoptosis in human platelets assessed as necrotic cells after 10 mins using Annexin V/propidium iodide by flow cytometry (reference value: 0.07 %); format: cell-based; details: platelet
[7] = tested on: Trypanosoma cruzi; assay: Trypanocidal activity against epimastigote forms of Trypanosoma cruzi Queretaro after 24 hrs; format: functional
[8] = Induction of apoptosis in human platelets assessed as early apoptotic cells after 10 mins using Annexin V/propidium iodide by flow cytometry (reference value: 10.30 %); format: cell-based; details: platelet
[9] = Induction of apoptosis in human platelets assessed as late apoptotic cells after 10 mins using Annexin V/propidium iodide by flow cytometry (reference value: 0.02 %); format: cell-based; details: platelet
[10] = Induction of apoptosis in human monocytes assessed as late apoptotic cells using Annexin V/propidium iodide by flow cytometry (reference value: 0.27 %); format: cell-based; details: monocyte
[11] = Induction of apoptosis in human monocytes assessed as early apoptotic cells using Annexin V/propidium iodide by flow cytometry (reference value: 2.18 %); format: cell-based; details: monocyte

Structure (SMILES)	viability at 10 min [1]	Activity [2]	viability [3]	LC50 [4]	Activity [5]	Activity [6]	LC50 [7]	Activity [8]	Activity [9]	Activity [10]	Activity [11]
NC(=S)N/N=C/c1ccc(Sc2ccccc2C(F)(F)F)o1	82.6%	0.24%	70.7%	11.4 µg/mL (≈ 33 µM)	22.14%	0.05%	14 µg/mL (≈ 40.5 µM)	17.31%	0.06%	2.63%	26.47%
NC(=S)N/N=C/c1ccc(Sc2cccc(C(F)(F)F)c2)o1	90.9%	2.57%	66.7%	17.8 µg/mL (≈ 51.5 µM)	19.06%	0.17%	7.8 µg/mL (≈ 22.6 µM)	8.87%	0.05%	7.87%	22.9%
NC(=S)N/N=C/c1ccc(Sc2ccc(C(F)(F)F)cc2)o1	79.4%	1.18%	72.9%	8.3 µg/mL (≈ 24 µM)	18.56%	0.16%	29.5 µg/mL (≈ 85.4 µM)	20.39%	0.08%	4.48%	21.44%
NC(=S)N/N=C/c1ccc(Sc2ccc(C(F)(F)F)cc2[N+](=O)[O-])o1	87.2%	0.7%	79.4%	3.2 µg/mL (≈ 8.2 µM)	23.63%	0.09%	3.4 µg/mL (≈ 8.71 µM)	12.48%	0.24%	2.81%	17.05%
NC(=S)N/N=C/c1ccc(Sc2c(F)c(F)c(C(F)(F)F)c(F)c2F)o1	87.4%	0.62%	72.7%	5.1 µg/mL (≈ 12.2 µM)	23.35%	0.04%	4.6 µg/mL (≈ 11 µM)	12.55%	0.03%	4.76%	21.91%
O=C(Cn1ccnc1[N+](=O)[O-])NCc1ccccc1 [BENZNIDAZOLE]	76.9%	0.51%	75.9%	4 µg/mL (≈ 15.4 µM)	42.51%	0.12%	6.5 µg/mL (≈ 25 µM)	22.95%	0.02%	4.78%	18.79%
CN(C)c1ccc(C(=C2C=CC(=[N+](C)C)C=C2)c2ccc(N(C)C)cc2)cc1.[Cl-] [GENTIAN VIOLET]	–	–	–	15.8 µg/mL	–	–	6.2 µg/mL	–	–	–	–

Reference: ChEMBL document CHEMBL3351362, “In vitro antiparasitic activity of new thiosemicarbazones in strains of Trypanosoma cruzi” (Eur J Med Chem, 2014)
